Article PMC7070167, “Cell‐permeable high‐affinity tracers for Gq proteins provide structural insights, reveal distinct binding kinetics and identify small molecule inhibitors” (British Journal of Pharmacology, 2020)
Like-named read-outs stand apart in the source and are kept apart here. *1 amine or outer side, *2 acyl side, *3 side chain or, on linkers, in order; H or OH if unused. Where a SMILES comes first, the peptide text is derived from it. Bridges are numbered along the chain shown (N, C = ends). [ ]: non-standard residue; d: D form. The star is where a group is joined. Leu(3R-OH,Nα-propionyl) = CCC(=O)N[C@H](C(=O)*)[C@H](O)C(C)C; X1 = CC(C)[C@@H](O[*:3])[C@H](N[*:1])C(=O)[*:2]; NMeT = CN[C@H](C(=O)O)[C@@H](C)O; dPhLac = O=C(O)[C@H](O)Cc1ccccc1; NMeA = CN[C@@H](C)C(=O)O; NMeDha = C=C(NC)C(=O)O

Molecular target: T1, Gq proteins (Homo sapiens, UniProt P50148)
T1 construct: Native cell membrane preparations from rat brain cortex and human blood platelets; host or cells: human platelets (intact suspension or membrane preparation)
T1 sequence (P50148 1-359): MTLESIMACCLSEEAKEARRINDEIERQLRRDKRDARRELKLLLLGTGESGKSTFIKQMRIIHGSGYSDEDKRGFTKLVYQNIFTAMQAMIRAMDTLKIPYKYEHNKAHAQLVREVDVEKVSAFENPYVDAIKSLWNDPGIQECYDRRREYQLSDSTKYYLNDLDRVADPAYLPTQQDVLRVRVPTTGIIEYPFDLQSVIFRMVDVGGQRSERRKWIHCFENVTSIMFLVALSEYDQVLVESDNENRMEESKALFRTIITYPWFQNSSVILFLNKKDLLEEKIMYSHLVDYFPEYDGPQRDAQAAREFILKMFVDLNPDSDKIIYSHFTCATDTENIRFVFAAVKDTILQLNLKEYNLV
Experiment: High-throughput (96-well) competition binding assay at human platelet membranes
Conditions: for Ki: versus [³H]PSB-15900 (5 nM), high-throughput 96-well format, 37°C
Method: The experiments were performed in 50‐mM Tris–HCl buffer, pH 7.4. The final assay volume of 200 μl contained 5 μl of test compound in DMSO, 50 μl of [^3H]PSB‐15900 or [^3H]PSB‐16254, respectively, in buffer, 5 nM of final concentration, and 100 μl of human platelet membrane preparation (50 μg of protein) or intact human platelets (7.5 × 10^6 cells/vial). Non‐specific binding was determined in the presence of 5‐μM FR. The incubation was started by the addition of membrane preparation and was performed at 37°C for 1 hr with gentle shaking. It was terminated by rapid vacuum filtration through GF/C glass‐fibre filters using a Brandel 24‐well harvester. The filters were rinsed three times with approximately 3 ml each of ice‐cold Tris–HCl buffer, 50 mM, pH 7.4 containing 0.1% Tween 20 and 0.1% BSA, to separate bound from free radioligand. The filters were punched out and transferred to scintillation vials. Luma Safe® scintillation cocktail (2.5 ml) was added, and after 6 hr of incubation, the samples were counted for 1 min each, using a liquid scintillation counter (counting efficiency 53%). Experiments in the presence of GTP were additionally performed after preincubation of the membrane preparation with GTP for 1 hr. pIC50 and pKi values were calculated using equations for one‐site competition as implemented in GraphPad Prism 6.01 (GraphPad Inc., La Jolla, CA, USA).
Competition binding experiments were performed as described above (for incubation conditions, washing steps, and buffers) but on 96‐well plates using a Brandel 96‐well plate harvester with GF/C Unifilters (Perkin‐Elmer). After harvesting, 50 μl per cavity of Ultima Gold scintillation cocktail (Perkin‐Elmer) was added, and counting was performed as described above.

For `C=C1C(=O)N[C@@H](C)C(=O)N(C)[C@@H](C)C(=O)N[C@@H]([C@H](OC(=O)[C@@H](NC(=O)CC)[C@H](O)C(C)C)C(C)C)C(=O)N(C)[C@@H]([C@@H](C)OC)C(=O)O[C@H](C(C)C)[C@H](NC(C)=O)C(=O)O[C@H](Cc2ccccc2)C(=O)N1C` [FR, FR900359] (Ac-[X1][dPhLac][NMeDha]A[NMeA][X1](Leu(3R-OH,Nα-propionyl))[NMeT](Me); ester 1-C), which “inhibition of radioligand binding (positive control)” value (1 μM, 96‐well plates) is on record?
Its value is “complete inhibition”.

And the Ki (read-out: Ki)?
Its Ki is 6.56 ± 1.92 nM.

And the Ki (read-out: pKi (converted))?
Its Ki is 6.46 nM.
